The values below come from patent US20220089646A1 (THE UNIVERSITY OF QUEENSLAND, priority 2019, published 2022).

Structures are written as SMILES. Where two headings read alike, the source gives them in different places. *1 amine or outer side, *2 acyl side, *3 side chain or, on linkers, in order; H or OH if unused. Where a SMILES comes first, the peptide text is derived from it. Bridges are numbered along the chain shown (N, C = ends). [ ]: non-standard residue; d: D form. NHCH2CMe2S = CC(C)(CN[*:1])S[*:2]

For orientation: EC50 means the concentration giving half of the maximal effect. Read a low EC50 as greater potency. As usually defined, the half-life is the time in which the quantity being followed falls by half.

The target of data set [1] is MOP (Homo sapiens, UniProt P35372). The data set is described as follows: In vitro cAMP activity at MOP (Table 10). Type of data set: cell-based. The settings on record: cAMP inhibition, four-parameter regression. The procedure: The CP series compounds were assayed as follows: The assay was performed using a 96 well ½ area plate. The different cAMP standard solutions (3 μL/well) were plated in duplicate. The different concentrations of drug (3 μL/well), and control solutions (3 μL/well) were plated in triplicate. Following this, the acceptor bead mixture (3 μL/well) was added to the respective sets—either cAMP standard curve or the treatment. This was covered and incubated on the orbital shaker for 60 minutes at 37° C. Then, the donor bead mixture (10 μL/well) was added to each well. This was incubated at room temperature overnight on the orbital shaker.
MOP, sequence (P35372 whole entry): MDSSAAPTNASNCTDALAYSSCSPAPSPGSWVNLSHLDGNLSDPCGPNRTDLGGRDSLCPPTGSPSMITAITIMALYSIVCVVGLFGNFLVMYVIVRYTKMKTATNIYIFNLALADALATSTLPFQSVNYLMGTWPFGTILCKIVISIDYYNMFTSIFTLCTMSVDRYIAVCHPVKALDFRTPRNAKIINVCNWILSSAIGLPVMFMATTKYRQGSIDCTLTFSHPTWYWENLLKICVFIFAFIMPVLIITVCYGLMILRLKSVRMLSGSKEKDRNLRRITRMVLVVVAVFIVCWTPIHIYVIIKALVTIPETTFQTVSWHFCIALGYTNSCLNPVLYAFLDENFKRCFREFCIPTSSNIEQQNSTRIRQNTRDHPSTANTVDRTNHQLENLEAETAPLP
For DP-11-06 the assay was carried out in the same way as for the CP compounds except it was incubated for 30 mins at 37° C.
For the CP series compounds and DP-11-06, the Ensight® Multimode Plate Reader was used to quantify the fluorescence units of each plate. Before reading, each plate was centrifuged at 280 g for 30 seconds. Using GraphPad Prism7® Software, cAMP concentrations were determined by fit spline/LOWESS analysis. The cAMP standard curve was used for interpolation at this point. The cAMP concentrations were then normalized to the highest cAMP concentration recorded and analyzed by one-way ANOVA for multiple comparisons. The IC50 for each compound was then calculated using GraphPad Prism7® with non-linear regression analysis using four parameter curve fitting.
In this regard, a different regression analysis method was adopted on the above cAMP experiments. Particularly, a new non-linear regression (four-parameter) was adopted to better account for hill slope, thereby improving the regression fit.

Data set [2] deals with DOP (Homo sapiens, UniProt P41143). The data set is described as follows: cAMP assay with naloxone in HEK-DOP cells. The format is cell-based. The note with it: naloxone 100 μM/well; for Mean cAMP response with naloxone: HEK-DOP, peptide at approximate IC80; for Naloxone reversal of cAMP inhibition through DOP: p<0.05. Here is the method:
The preparation of buffers, cAMP standard curve, bead solutions were carried out identically to the agonist assay.
Forskolin had been optimised at 50 μM/well. Thus, the 25 mM stocks were used to prepare 300 μL of 0.3 mM Forskolin. The concentration of Forskolin prepared was 6 times the required concentration in the well to account for further dilution in the well. Forskolin solution was then made from this and used to dilute the drug solutions.
Approximate IC80 values were used for DP-7-11 and DP-7-12 to determine the ability of naloxone to reverse agonist inhibitory effect.
The desired concentration of naloxone was 100 μM/well. Thus, 100 μL of 600 μM naloxone was made up from 100 mM stock. This was 6 times the desired in-well concentration to account for further dilution in the well by Forskolin, peptide, cells and acceptor bead solutions.
Stimulation buffer was added to the 0.3 mM Forskolin solution to prepare the Forskolin only treatment solution as the positive control. Stimulation buffer used as the negative control.
The DP series compounds were assayed as follows: The different cAMP standard solutions (3 μL/well) were plated in duplicate. Naloxone solution was then plated (1 μL/well) for each treatment (DP-7-11, DP-7-12, Forskolin only and stimulation buffer) in triplicate. In the same way, stimulation buffer was plated (1 μL/well) for the same number of wells. This made up two sets of wells, antagonist and non-antagonist. Following this, the acceptor bead and cell mixture (3 μL/well) was added to the treatment wells. The plates were then covered and centrifuged at 280 g for 30 seconds before incubation on an orbital shaker for 30 minutes at room temperature. The acceptor bead mixture (3 μL/well) was then added to the cAMP standard curve wells, whilst the drug mixed with Forskolin solutions (3 μL/well) were added to the respective treatment wells in triplicate. Again, the plates were centrifuged at 280 g for 30 seconds, then covered and incubated on the orbital shaker for another 30 minutes. Finally, the donor bead mixture (10 μL/well) was added to each well. This was incubated at room temperature overnight on the orbital shaker.
The Ensight® Multimode Plate Reader was used to quantify the fluorescence units of each plate. Before reading, each plate was centrifuged at 280 g for 30 seconds. Using GraphPad Prism7® Software, cAMP concentrations were determined from the fluorescence data by fit spline/LOWESS analysis. The cAMP standard curve was used for interpolation at this point. The cAMP concentrations were then normalized to the highest cAMP concentration recorded and analyzed by one-way ANOVA for multiple comparisons. This analysis was corrected for multiple comparisons using Bonferroni. […]
On the technique in general: Cyclic AMP is a second messenger, typically raised through Gs and lowered through Gi signalling.

Data set [3] can be described thus: Serum stability. The note with it: rat. The format is in vitro ADME. Here is the method: Purified DP-7-11 (1 mg/mL) was dissolved in 0.1 M ammonium bicarbonate (NH4HCO3) buffer. To prepare a stock trypsin solution, 1 mg trypsin was dissolved in 50 mL of 0.1 M NH4HCO3 buffer. Equal volumes of the stock trypsin solution (62.5 μL) and DP-7-11 solution (62.5 μL) were incubated in 375 μL of 0.1M NH4HCO3 buffer in a 37° C. water bath. Aliquots of 100 μL were collected from this mixture at set time intervals of 0 min, up to 24 hours. Ice-cold acetonitrile containing 0.5% TFA was used to quench the reaction between DP-7-11 and trypsin at predetermined intervals, and just prior to HPLC or LC-MS analysis. The quenched samples were vortexed for 10 minutes followed by centrifugation at 12,000 rpm for a further 15 minutes. Supernatant was sampled and analysed using analytical RP-HPLC or LC-MS. Samples without trypsin acted as negative controls and were sampled at two intervals of 0 hour and 6 hours.
Serum stability of DP-7-11 was also performed. In this regard, rat serum replaced trypsin and NH4HCO3 buffer. Water was used as negative control in place of serum, with the stability study performed in an identical fashion to the trypsin study. […] DP-11-00 and DP-11-06 were tested in a similar manner.
As used in this serum and trypsin stability discussion, the term ‘degraded completely’ relates to the relevant compound being completely absent when tested. In other words, the compound being tested is not observed when tested.
This appears to indicate the improved metabolic stability of the present invention.
The serum and trypsin stability of DP-7-11 and DP-7-12 were tested (in some instances again) using LC-MS. The LC-MS utilized in this study was more sensitive than the LC-MS utilized in the above tests.

DOP, sequence (P41143 whole entry): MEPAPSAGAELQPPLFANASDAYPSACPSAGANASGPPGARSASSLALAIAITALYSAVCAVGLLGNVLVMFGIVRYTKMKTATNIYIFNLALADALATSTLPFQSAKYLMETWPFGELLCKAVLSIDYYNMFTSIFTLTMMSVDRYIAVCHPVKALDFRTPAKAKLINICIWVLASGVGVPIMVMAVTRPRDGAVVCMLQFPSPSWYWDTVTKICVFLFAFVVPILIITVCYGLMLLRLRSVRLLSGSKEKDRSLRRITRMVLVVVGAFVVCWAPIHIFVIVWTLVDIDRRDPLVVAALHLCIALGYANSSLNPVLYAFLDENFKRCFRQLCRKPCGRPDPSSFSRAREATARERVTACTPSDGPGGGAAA

`CC1(C)CNC(=O)C[C@@H](NC(=O)[C@@H](N)Cc2ccc(O)cc2)C(=O)NCC(=O)N[C@@H](Cc2ccccc2)C(=O)N[C@H](C(=O)N[C@@H](CCCNC(=N)N)C(=O)N[C@@H](CCCNC(=N)N)C(N)=O)CSS1` [DP-7-12, c(Tyr-D(Asp)-Gly-Phe-SSa-Arg-Arg)] (H-Y[dD]GFCRR-NH2; linker 2-5 via NHCH2CMe2S) registered an EC50 in data set [1] of 2.7 nM. In data set [2], the “Mean cAMP response with naloxone” value is given as 62.68% and the “Naloxone reversal of cAMP inhibition through DOP” value is reported as “reversed by naloxone”. Besides, the remaining at 1 h, 0.125 mg/mL in data set [3] (after 1 hr, read-out: Peptide still present in serum) was about 67%. Further, the remaining at 2 h, 0.125 mg/mL in data set [3] (after 2 hours, read-out: Peptide still present in serum) is about 20%. Moreover, the half-life at 0.125 mg/mL in data set [3] (more sensitive LC-MS (Table 8a), read-out: Incubation in serum: half-life) was about 0.75 h.
In the case of `CC1(C)CNC(=O)C[C@H](C(=O)N[C@@H](CCCNC(=N)N)C(=O)N[C@@H](CCCNC(=N)N)C(N)=O)NC(=O)[C@H](Cc2ccccc2)NC(=O)CNC(=O)[C@@H](NC(=O)[C@@H](N)Cc2ccc(O)cc2)CSS1` [DP-7-11, c(Tyr-SSa-Gly-Phe-D(Asp)-Arg-Arg)], the EC50 in data set [1] was over 10000 nM. In data set [2], the “Mean cAMP response with naloxone” value was found to be 77.18% and the “Naloxone reversal of cAMP inhibition through DOP” value is recorded as “reversed by naloxone”. Also, the half-life at 0.125 mg/mL in data set [3] (37° C., LC-MS (Table 8), read-out: Serum half-life (converted)) was 6 h. Besides, in data set [3] (more sensitive LC-MS (Table 8a), read-out: Incubation in serum: half life), the half-life at 0.125 mg/mL is over 6 h. Further, the metabolised at 6 h, 0.125 mg/mL in data set [3] (up to 6 h, more sensitive LC-MS, read-out: Degradation in serum) is about 10%.
